Tests used:
[1] = tested on: acute cutaneous inflammation (phorbol ester ear edema); assay: Activity against acute cutaneous inflammation (topical), phorbol ester ear edema; assay type: in vivo; settings: mouse, 6 hours
Protocol: Phorbol ester (phorbol 12-myristate 13-acetate) (5 μg) is applied topically to the front and back surfaces of the right ear of the mouse 30 minutes after application of the vehicle (95% ethanol) or of the agent (1 mg). The difference in thickness between the right ear and the left ear (edema) is measured 6 hours after application.
The percentage of inhibition of cutaneous inflammation relative to a group of animals treated topically with 95% ethanol is calculated. The compound of Example 1, at a rate of 1 mg/ear, allows a 63% reduction of the inflammation. Indomethacin, taken as a reference, at a dose of 2.5 mg/ear, allows a 67% reduction of inflammation.

[2] = tested on: chronic inflammation of the ear induced by repeated phorbol ester; settings: 15 days after repeated application of phorbol ester; cited from earlier work
[3] = tested on: inflammation induced by carrageenan (plantar edema); assay: Anti-inflammatory activity: plantar edema using carrageenan; assay type: in vivo, Sprague-Dawley rats; settings: rat, compounds 10 mg/kg oral 30 min before carrageenan, indomethacin 10 mg/kg
Protocol: The method used is that of plantar edema using carrageenan. The procedure used is as follows: 1% carrageenan in 0.2 ml of […] is administered into the sole of the right foot of Sprague-Dawley rats weighing 250 g on average. The volume of the paw is measured by plethysmography after one hour and after two hours.
The compounds of the invention are administered in a 10 mg/kg oral dose 30 minutes before the administration of carrageenan. A saline solution is injected into the sole of the left foot, which serves as a control.
The compounds of the invention make it possible to reduce the increase in volume of the right foot relative to that of the left foot (Table 1).

[4] = Study of the diuretic activity (urinary volume); assay type: in vivo, rats; settings: 6 hours
[5] = tested on: chronic inflammation of the ear induced by repeated phorbol ester; assay: Curative activity after repeated topical application in chronic inflammation of the ear, repeated phorbol ester (PMA) for 15 days (model of psoriasis); assay type: in vivo; settings: mouse, 0.5 mg/ear
Protocol: Phorbol ester (1 μg) is applied topically to the front and back surfaces of the right ear of the mouse on days 0, 2, 4, 7, 9, 11 and 14. The vehicle or the agent is applied topically twice daily, on days 7, 8, 9, 10, 11, 12, 13 and 14, and once on the 15th day. On days 7, 9, 11 and 14 the vehicle or the agent is applied 30 minutes before and after the phorbol ester.
Two parameters are measured
1. Difference in thickness between the right and left ears every day and on days 0, 2, 4, 7, 9, 11 and 14, 6 hours after repeated application of the phorbol ester.
After repeated application of phorbol ester and after 15 days, the thickness reflects not only the presence of an edema and of an infiltration of lymphocyte and monocyte-macrophage neutrophil type cells in the skin tissue (inflammation) but also of an increase in the thickness of the epidermis (epidermal hyperplasia secondary to a proliferation of keratinocytes). […]
The products of the invention, in topical, curative and repeated use, inhibit, between the 8th and 10th days, the chronic inflammation of the right ear (measured, on the one hand, by the difference in thickness between the right ear and the left ear, and, on the other hand, by the difference in weight between the two ears after sacrificing the animal on the 15th day) induced by a repeated application of phorbol ester in mice.

[6] = tested on: arthritis induced by killed Mycobacterium tuberculosis (complete Freund adjuvant); assay: Study of an activity of anti-arthritic type in rats (complete Freund adjuvant); assay type: in vivo, Lewis rats; settings: rat, oral, days 1 to 5; day 18
Protocol: Groups of 5 male or female Lewis rats weighing from 130 to 150 g are used. A suspension of 0.3 mg of killed Mycobacterium tuberculosis in 0.1 cm^3 of mineral oil (complete Freund adjuvant, CFA) is administered into the subplantar region of the right hind foot on day 1. The volumes of the hind feet are measured by water displacement on days 0, 1, 5, 14 and 18. The rats are weighed on days 0 and 18. The test products are suspended in carboxymethylcellulose and administered orally for 5 consecutive days, on days 1 to 5. In parallel, a control group is used in order to eliminate artefacts resulting from the handling of the animals. A group treated with a reference product (hydrocortisone) allows the test to be validated.

| Molecule | topical activity in the chronic model (in words) [2] | Percentage of inhibition, 1 h [3] [%] | Percentage of inhibition, 2 h [3] [%] | further results |
| --- | --- | --- | --- | --- |
| COc1ccc2c(c1)c(CC(=O)O)c(C)n2C(=O)c1ccc(Cl)cc1 [Indomethacin, reference compound] | topically inactive | 24 | 64 | reduction of inflammation, reference ([1]; 2.5 mg/ear): 67% |
| Cc1cc(C)nc(NC(=O)c2cnccn2)c1 |  | 55 | 64 |  |
| Cc1cc(C)nc(NC(=NN)c2cnccn2)c1 [Example 25, N-(4,6-DIMETHYL-2-PYRIDYL)-2-PYRAZINECARBOXAMIDE HYDRAZONE] |  |  |  | increase of urinary volume (factor relative to an untreated rat) ([4]; 3 mg/kg p.o.): 2.8 |
| Cc1cc(C)nc(NC(=O)Cc2cccs2)c1 [drawing 58] |  | 63 | 70 |  |
| Cc1nc(N)c(NC(=O)Cc2ccsc2)c(C)c1Br [Example 17, N-(2-AMINO-5-BROMO-4,6-DIMETHYL-3-PYRIDYL)-3-THIENYLACETAMIDE] |  |  |  | reduction of the difference in thickness between the two ears [5]: 60%; reduction of the weight difference ([5]; ear punches): 38% |
| cyclosporin A | topically active |  |  |  |
| NS(=O)(=O)c1cc(C(=O)O)c(NCc2ccco2)cc1Cl [furosemide, reference compound] |  |  |  | increase of urinary volume (factor), reference ([4]; rat, 5 mg/kg p.o.): 3 |
| Cc1cc(C)nc(NC(=O)Cc2cccs2)c1 [Example 1, N-(4,6-DIMETHYL-2-PYRIDYL)-2-THIENYLACETAMIDE] |  |  |  | reduction in the volume of the right hind foot [6]: 47%; reduction of the inflammation ([1]; 1 mg/ear): 63% |
| CN1C(C(=O)Nc2ccccn2)=C(O)c2ccccc2S1(=O)=O [piroxicam] | topically inactive |  |  |  |
